Where two headings read alike, the source gives them in different places.
Columns and labels:
[1] = system: HCV genotype 1a subgenomic replicon; assay: HCV replicon assay, genotype 1a (luciferase); format: cell-based; details: read-out: Replicon 1A EC50
Experimental: (§1) Protocol for Testing and Data Analysis of Compounds in the HCV Replicon Assay
(§2) Compounds were assayed for activity against HCV using the genotype 1a and 1b subgenomic replicon model systems. Stable cell lines bearing the genotype 1a and 1b replicons were used for screening of compounds. Both replicons are bicistronic and contain the firefly luciferase gene. The ET cell line is stably transfected with RNA transcripts harboring a I389luc-ubi-neo/NS3-3′/ET replicon with firefly luciferase-ubiquitin-neomycin phosphotransferase fusion protein and EMCV-IRES driven NS3-5B polyprotein containing the cell culture adaptive mutations (E1202G; T1280I; K1846T) (Krieger at al, 2001 and unpublished). The genotype 1a replicon is a stable cell line contains the H77 NS3-5B polyprotein sequence, modified to contain the firefly luciferase gene and encode for neomycin resistance. The genotype 1a replicon contains several adaptive changes (NS4B Q31H, NS5A K68R, NS5A S232I). The cells were grown in DMEM, supplemented with 10% fetal calf serum, 2 mM Glutamine, Penicillin (100 IU/mL)/Streptomycin (100 μg/mL), lx nonessential amino acids, and 250-500 μg/mL G418 (“Geneticin”). They were all available through Life Technologies (Bethesda, Md.). The cells were plated at 5×10^3 cells/well in 384 well plates containing compounds. The final concentration of compounds ranged between 0.03 pM to […] and the final DMSO concentration of 0.5-1%.
(§3) Luciferase activity was measured 48 hours later by adding a Steady glo reagent (Promega, Madison, Wis.). Percent inhibition of replication data was plotted relative to no compound control. Under the same condition, cytotoxicity of the compounds was determined using cell titer glo (Promega, Madison, Wis.). EC50s were determined from an 11 point dose response curve using 3-4-fold serial dilution for each compound, which spans a concentration range >1000 fold. The level of inhibition for each compound was determined with Activity Base or with BioAssay plus the Excel XC50 module. Percent inhibition was determined with the following equation where the cross-talk corrected value is the value from the test well, the compound positive control mean is the average value of the wells with no compound present, and the DMSO negative control mean is the average value of the wells with DMSO but no cells present.
(§4) [formula] These normalized values are exported to EC50 where they are plotted against the molar compound concentrations using the standard four parameter logistic equation:
(§5) [formula] Where: • A=minimum y D=slope factor • B=maximum y x=log10 compound concentration [M] • C=log10EC50 pEC50=−C

[2] = system: HCV genotype 1b subgenomic replicon (ET cell line); assay: HCV replicon assay, genotype 1b (luciferase); format: cell-based; details: genotype 1b replicon ET cell line, luciferase activity at 48 hours
Experimental: as §1, §2, §3, §4, §5

| Structure (SMILES) | EC50 ([1]; Hepatitis C virus, 48 h) | EC50 ([2]; Hepatitis C virus) | EC50 ([1]; genotype 1a replicon stable cell line (H77 NS3-5B), luciferase activity at 48 hours) | EC50 [2] |
| --- | --- | --- | --- | --- |
| COC(=O)N[C@H](C(=O)N1[C@H](c2nc(-c3ccc4c(c3)-c3ccc(-c5c[nH]c([C@@H]6C[C@@H]7CCC[C@@H]7N6C(=O)[C@@H](NC(=O)OC)[C@@H](C)OC)n5)cc3-4)c[nH]2)C[C@@H]2CCC[C@@H]21)[C@@H](C)O [Example 3, Methyl [(1S,2R)-1-{[(2S,3aS,6aS)-2-[4-(6-{2-[(2S,3aS,6aS)-1-((2S,3R)-3-hydroxy-2-{[(methyloxy)carbonyl]amino}butanoyl)octahydrocyclopenta[b]pyrrol-2-yl]-1H-imidazol-4-yl}-2-biphenylenyl)-1H-imidazol-2-yl]hexahydrocyclopenta[b]pyrrol-1(2H)-yl]carbonyl}-2-(methyloxy)propyl]carbamate] | 13 pM | 8 pM | – | – |
| COC(=O)N[C@H](C(=O)N1[C@H](c2ncc(-c3ccc4c(c3)CCc3cc(-c5cnc([C@@H]6C[C@H]7CCC[C@H]7N6C(=O)[C@H](NC(=O)OC)[C@H](C)OC)[nH]5)ccc3-4)[nH]2)C[C@@H]2CCC[C@@H]21)[C@@H](C)OC [Example 6, Dimethyl ((2S,2′S,3R,3′R)-((2S,2′S,3aS,3a′S,6aS,6a′S)-2,2′-(5,5′-(9,10-dihydrophenanthrene-2,7-diyl)bis(1H-imidazole-5,2-diyl))bis(hexahydrocyclopenta[b]pyrrole-2,1(2H)-diyl))bis(3-methoxy-1-oxobutane-2,1-diyl))dicarbamate] | 16 pM | 16 pM | – | – |
| COC(=O)N[C@H](C(=O)N1[C@H](c2ncc(-c3ccc4c5ccc(-c6cnc([C@@H]7C[C@@H]8CCC[C@@H]8N7C(=O)[C@@H](NC(=O)OC)[C@@H](C)OC)[nH]6)cc5n(C)c4c3)[nH]2)C[C@@H]2CCC[C@@H]21)[C@@H](C)OC [Example 7, dimethyl ((2S,2′S,3R,3′R)-((2S,2′S,3aS,3a′S,6aS,6a′S)-2,2′-(5,5′-(9-methyl-9H-carbazole-2,7-diyl)bis(1H-imidazole-5,2-diyl))bis(hexahydrocyclopenta[b]pyrrole-2,1(2H)-diyl))bis(3-methoxy-1-oxobutane-2,1-diyl))dicarbamate] | – | – | 160 pM | 32 pM |
| COC(=O)N[C@H](C(=O)N1[C@H](c2ncc(-c3ccc4c(c3)Cc3cc(-c5cnc([C@@H]6C[C@H]7CCC[C@H]7N6C(=O)[C@H](NC(=O)OC)[C@H](C)OC)[nH]5)ccc3-4)[nH]2)C[C@@H]2CCC[C@@H]21)[C@@H](C)OC [Example 4] | 40 pM | 20 pM | – | – |
| COC(=O)N[C@H](C(=O)N1[C@@H]2CCC[C@@H]2C[C@H]1c1ncc(-c2ccc3c(c2)S(=O)(=O)c2cc(-c4cnc([C@@H]5C[C@@H]6CCC[C@@H]6N5C(=O)[C@@H](NC(=O)OC)[C@@H](C)OC)[nH]4)ccc2-3)[nH]1)[C@@H](C)OC [Example 9] | 80 pM | 32 pM | – | – |
| COC(=O)N[C@H](C(=O)N1[C@H](c2ncc(-c3ccc4c(c3)Cc3ccc(-c5cnc([C@@H]6C[C@H]7CCC[C@H]7N6C(=O)[C@H](NC(=O)OC)[C@H](C)OC)[nH]5)cc3C4)[nH]2)C[C@@H]2CCC[C@@H]21)[C@@H](C)OC [Example 5, dimethyl ((2S,2′S,3R,3′R)-((2S,2′S,3aS,3a′S,6aS,6a′S)-2,2′-(5,5′-(9,10-dihydroanthracene-2,6-diyl)bis(1H-imidazole-5,2-diyl))bis(hexahydrocyclopenta[b]pyrrole-2,1(2H)-diyl))bis(3-methoxy-1-oxobutane-2,1-diyl))dicarbamate] | 32 pM | 20 pM | – | – |
| COC(=O)N[C@H](C(=O)N1[C@H](c2ncc(-c3ccc4c(c3)-c3ccc(-c5cnc([C@@H]6C[C@@H]7CCC[C@@H]7N6C(=O)[C@@H](NC(=O)OC)[C@@H](C)O)[nH]5)cc3-4)[nH]2)C[C@@H]2CCC[C@@H]21)[C@@H](C)O [Example 1] | 11 pM | 6 pM | – | – |
| COC(=O)N[C@H](C(=O)N1[C@H](c2ncc(-c3ccc4c(c3)-c3ccc(-c5cnc([C@@H]6C[C@@H]7CCC[C@@H]7N6C(=O)[C@@H](NC(=O)OC)[C@@H](C)OC)[nH]5)cc3-4)[nH]2)C[C@@H]2CCC[C@@H]21)[C@@H](C)OC [Example 2, dimethyl ((2S,2′S,3R,3′R)-((2S,2′S,3aS,3a′S,6aS,6a′S)-2,2′-(5,5′-(biphenylene-2,6-diyl)bis(1H-imidazole-5,2-diyl))bis(hexahydrocyclopenta[b]pyrrole-2,1(2H)-diyl))bis(3-methoxy-1-oxobutane-2,1-diyl))dicarbamate] | 10 pM | 8 pM | – | – |
| COC(=O)N[C@H](C(=O)N1[C@@H]2CCC[C@@H]2C[C@H]1c1ncc(-c2ccc3c(c2)Oc2ccc(-c4cnc([C@@H]5C[C@@H]6CCC[C@@H]6N5C(=O)[C@@H](NC(=O)OC)[C@@H](C)OC)[nH]4)cc2O3)[nH]1)[C@@H](C)OC [Example 10, Dimethyl ((2S,2′S,3R,3′R)-((2S,2′S,3aS,3a′S,6aS,6a′S)-2,2′-(5,5′-(dibenzo[b,e][1,4]dioxine-2,7-diyl)bis(1H-imidazole-5,2-diyl))bis(hexahydrocyclopenta[b]pyrrole-2,1(2H)-diyl))bis(3-methoxy-1-oxobutane-2,1-diyl))dicarbamate] | 10 pM | 10 pM | – | – |
| COC(=O)N[C@H](C(=O)N1[C@@H]2CCC[C@@H]2C[C@H]1c1ncc(-c2ccc3c(c2)C(F)(F)c2cc(-c4cnc([C@@H]5C[C@@H]6CCC[C@@H]6N5C(=O)[C@@H](NC(=O)OC)[C@@H](C)OC)[nH]4)ccc2-3)[nH]1)[C@@H](C)OC [Example 8, Dimethyl ((2S,2′S,3R,3′R)-((2S,2′S,3aS,3a′S,6aS,6a′S)-2,2′-(5,5′-(9,9-difluoro-9H-fluorene-2,7-diyl)bis(1H-imidazole-5,2-diyl))bis(hexahydrocyclopenta[b]pyrrole-2,1(2H)-diyl))bis(3-methoxy-1-oxobutane-2,1-diyl))dicarbamate] | 32 pM | 16 pM | – | – |
